Measurements reported in ChEMBL document CHEMBL1201862, “PubChem BioAssay data set” (2004).
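The compound was tested at five concentrations on cells cultured in 96-well plates, with a 48-hour exposure period. Here, GI50 denotes the concentration required for 50% inhibition of growth.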 Activity calls are given as the source filed them. Cut-off read from the data, not from the text of the source: active = GI50 up to about 1.1 µM and inactive = higher.

Tests used:
Assay in all cases: NCI anticancer screen, dose series, 48 h
[1] = test system: Hs-578T
[2] = test system: LXFL 529
[3] = test system: DMS-114
[4] = test system: DMS-273
[5] = test system: SNB-78
[6] = test system: XF498
[7] = test system: HOP-18
[8] = test system: M19-MEL
[9] = test system: RXF 631

Compound: CCCCCCCCC[n+]1cccc(C2C(C(=O)OCC)=C(C)NC(C)=C2C(=O)OCC)c1
- GI50 [1]: 3.1 µM (inactive)

Compound: CC1C[C@]2(C[C@@H](C)C(=O)O2)O[C@@H]2CC3(C)[C@@H]4CCC5C(C)(C)OC(=O)C[C@H]6OO[C@]4(CC[C@]3(C)C12)CC56O (stereo not given in full)
- GI50 [2]: > 100 µM (inactive)
- GI50 [3]: > 100 µM (inactive)
- GI50 [4]: > 100 µM (inactive)
- GI50 [5]: > 100 µM (inactive)
- GI50 [6]: > 100 µM (inactive)
- GI50 [7]: > 100 µM (inactive)

Compound: O=C1/C(=C/c2ccccc2O)N=C(c2ccccc2)N1c1nc2ccccc2s1
- GI50 [1]: 16 µM (inactive)

Compound: Cc1cccc2c1Sc1ccccc1C2NC(=O)CCN(C)C (stereo not given)
- GI50 [2]: > 100 µM (inactive)
- GI50 [3]: > 100 µM (inactive)
- GI50 [4]: > 100 µM (inactive)
- GI50 [5]: > 100 µM (inactive)
- GI50 [8]: > 100 µM (inactive)

Compound: COC(=O)C(=Cc1cc(OC)c(OC)c(OC)c1-c1cc2c(cc1C1(C)OCCS1)OCO2)C(=O)OC (stereo not given)
- GI50 [2]: 24.1 µM (inactive)
- GI50 [3]: 19.8 µM (inactive)
- GI50 [9]: 31.4 µM (inactive)
- GI50 [4]: 23.2 µM (inactive)
- GI50 [8]: 23 µM (inactive)

Compound: C=C1C(=O)OC2CC(C)C(C(O)CC(C)O)=CCC12 (stereo not given)
- GI50 [1]: 20.9 µM (inactive)

Compound: COc1ccc2[nH]c3ccc4cc[n+](CCN5CCC(C6CCN(CC[n+]7ccc8ccc9[nH]c%10ccc(OC)cc%10c9c8c7)CC6)CC5)cc4c3c2c1
- GI50 [3]: 0.125 µM (active)
- GI50 [4]: 0.23 µM (active)
- GI50 [5]: 9.12 µM (inactive)
- GI50 [8]: 0.719 µM (active)
- GI50 [1]: 33 µM (inactive)
- GI50 [6]: > 60.1 µM (inactive)
- GI50 [7]: 1.79 µM (inactive)

Compound: Cc1cc(C)nc(SCCc2cccc[n+]2C)n1
- GI50 [1]: > 100 µM (inactive)

Compound: COc1ccc(NC(=O)/C(=N/O)C(C)=O)cc1
- GI50 [2]: > 100 µM (inactive)
- GI50 [3]: 36.7 µM (inactive)
- GI50 [4]: > 100 µM (inactive)
- GI50 [5]: > 100 µM (inactive)
- GI50 [7]: > 100 µM (inactive)

Compound: COc1ccc(O)cc1 [MEQUINOL]
- GI50 [2]: 33.6 µM (inactive)
- GI50 [3]: 48.4 µM (inactive)
- GI50 [5]: > 100 µM (inactive)
- GI50 [8]: 95.3 µM (inactive)
- GI50 [6]: > 100 µM (inactive)

Compound: O=C(CCc1ccc(O)c(O)c1)NCCc1ccccc1
- GI50 [1]: > 82.6 µM (inactive)

Compound: COC(=O)/C(C#N)=C1\CCC(OC)N1 (stereo not given)
- GI50 [2]: > 100 µM (inactive)
- GI50 [3]: > 100 µM (inactive)
- GI50 [4]: > 100 µM (inactive)
- GI50 [5]: > 100 µM (inactive)
- GI50 [8]: > 100 µM (inactive)
- GI50 [6]: > 100 µM (inactive)
- GI50 [7]: > 100 µM (inactive)

Compound: CCCCN1/C(=N/Nc2n[nH]c(=O)c3ccccc23)SCC1c1ccc(Cl)cc1 (stereo not given)
- GI50 [1]: 15.1 µM (inactive)

Compound: Cc1nc(C)c(N2CCN(C#N)CC2)c(O)n1
- GI50 [1]: > 100 µM (inactive)

Compound: Nc1nc2cc(CNc3ccc(C(=O)O)cc3)ccc2nc1-c1ccccc1
- GI50 [1]: > 100 µM (inactive)

Compound: CC(CN1NC12CCCC2)N1NC12CCCC2 (stereo not given)
- GI50 [1]: > 100 µM (inactive)

Compound: CC(C1=CC=C2[C@@H]3CCC4CC(N(C)C)CC[C@]4(C)C3CC[C@]12C)N(C)C=O (stereo not given in full)
- GI50 [2]: > 100 µM (inactive)
- GI50 [3]: 91.6 µM (inactive)
- GI50 [4]: > 100 µM (inactive)
- GI50 [8]: > 100 µM (inactive)
- GI50 [7]: > 100 µM (inactive)

Compound: Cc1c(NC(=O)CSC(=S)N(C)C)c(=O)n(-c2ccccc2)n1C
- GI50 [1]: > 100 µM (inactive)

Compound: CCOC(=O)/C(=C/c1cccc(Cl)c1)N(CC)CC
- GI50 [2]: 46.7 µM (inactive)
- GI50 [3]: 31 µM (inactive)
- GI50 [8]: 88.7 µM (inactive)
- GI50 [6]: 46.3 µM (inactive)
- GI50 [7]: 24.2 µM (inactive)

Compound: CSC(SC)(C(=O)O)c1cc(-c2c(Cl)cccc2Cl)no1
- GI50 [1]: 39.2 µM (inactive)

Compound: CCN(CC)c1ccc(/C=C/C=C2C(=O)NC(=S)NC2=O)cc1
- GI50 [1]: 11 µM (inactive)

Compound: CC(C)c1ccccc1NC(=O)C(=O)Cc1nc2ccccc2s1
- GI50 [2]: > 100 µM (inactive)
- GI50 [3]: > 100 µM (inactive)
- GI50 [9]: > 100 µM (inactive)
- GI50 [4]: > 100 µM (inactive)
- GI50 [5]: > 100 µM (inactive)
- GI50 [8]: > 100 µM (inactive)
- GI50 [7]: > 100 µM (inactive)

Compound: C=CCC1(O)c2ccccc2C(=O)c2c(O)ccc(O)c21 (stereo not given)
- GI50 [1]: 4.24 µM (inactive)

Compound: COc1ccc(/C=C/c2cc(OC)c(OC)c(OC)c2)cc1O[Si](C)(C)C(C)(C)C
- GI50 [1]: 3.15 µM (inactive)

Compound: Cc1ccc(S(=O)(=O)N2CCCN(S(=O)(=O)c3ccc(C)cc3)CCN(S(=O)(=O)c3ccc(C)cc3)CCCSCC2)cc1
- GI50 [1]: > 100 µM (inactive)

Compound: CC(=O)N(C(C)=O)c1ncc(-n2nc(-c3ccccc3)cc2-c2ccccc2)c(-c2ccccc2)n1
- GI50 [1]: > 10 µM (inactive)

Compound: CC1=CCC[C@@H]2[C@@](C)(Cc3cc(O)ccc3O)[C@H](C)CC[C@@]12C
- GI50 [1]: 5.92 µM (inactive)

Compound: COc1ccc(/C=C2\C(=O)N(C(=O)Cc3ccccc3)N=C2C)cc1OC
- GI50 [3]: > 100 µM (inactive)
- GI50 [4]: > 100 µM (inactive)
- GI50 [5]: > 100 µM (inactive)
- GI50 [8]: > 100 µM (inactive)
- GI50 [6]: > 100 µM (inactive)
- GI50 [7]: > 100 µM (inactive)

Compound: O=C1CCC2(c3ccc(F)cc3)Nc3ncncc3N12 (stereo not given)
- GI50 [1]: > 10 µM (inactive)

Compound: CC1(C)N=c2c(ncn2N)=C(C(N)=O)N1
- GI50 [1]: > 100 µM (inactive)

Compound: CON(C)C(=O)CNC(=O)OCC1c2ccccc2-c2ccccc21
- GI50 [1]: > 100 µM (inactive)

Compound: CN(C)c1ccc(/N=C2/NC(=N\c3ccccc3)/C(=N/c3ccccc3)S2)cc1
- GI50 [1]: 30.7 µM (inactive)

Compound: C=C1C(=O)C23CC1C[C@H](OC(C)=O)[C@H]2C1(C)C(OC(C)=O)C[C@H](O)C(C)(C)[C@H]1C(=O)[C@@H]3OC(C)=O (stereo not given in full)
- GI50 [1]: 3.98 µM (inactive)
